Data taken from patent publication US20250136634A1, “CAP ANALOG AND USE THEREOF” (SHANGHAI HONGENE BIOTECH CORPORATION, priority 2021, published 2025).

What was measured:
Hela cells (ATCC CCL-2) = assay: Protein expression of Gaussia luciferase mRNA with various initial caps in transfected Hela cells; assay type: cell-based; conditions: 2 ug mRNA/well, 24 h after transfection, relative to ^m7GpppApG cap, mean±SD; for Relative Luciferase Unit RLU (after purification): HPLC-purified mRNA; for Relative Luciferase Unit RLU (no purification): unpurified mRNA
Method: In this example, Hela cells (ATCC CCL-2) were transfected with luciferase mRNAs (Gaussia luciferase) comprising various initial cap structures (the initial cap nucleotide structures comprised are: ^m7GpppApG, ^m7GpppA2′Ome pG, ^m7G3′OmepppA2′O-ethylpG, ^m7G2′OmepppA2′O-ethylpG, ^m7G3′OmepppA2′O-MOEpG, ^m7G2′O-mepppA2′O-MOEpG, ^m7Gppp(N6-methyladenine)2′O-MOEpG, ^m7G2′OmepppC2′O-ethylpC, ^m7G3′OmepppA2′O-MOEpU), and the signal intensity of luciferase was detected by microplate reader after 24 h. The fluorescence signal intensity was proportional to the abundance of protein expression. Hela cells were seeded at a density of 4×10^5/well in 6-well plates, and transfection was carried out when the cell density reached approximately 80%. Each well was transfected with 2 ug mRNA, and the transfection reagent was Lipofectamine MessengerMAX Transfection Reagent (Invitrogen), and the transfection steps were carried out according to the instructions. Twenty-four hours after transfection, the signal intensity of luciferase was measured on microplate reader. Measurement of luciferase fluorescence: the transfected cell culture solution was transferred to a 1.5 mL centrifuge tube and centrifuged, 10 ul of cell supernatant was taken and added to a 96-well plate, and 50 ul of 10 ng/ml substrate was added, and then the fluorescence intensity was measured on Synergy HI (BioTek) instrument. The expression of each mRNA was required to be measured 6 times and the expression results were relative values to the results of ^m7GpppApG cap.
The fluorescence signal intensity was proportional to the abundance of protein expression.
Hela cells were seeded at a density of 4×10^5/well in 6-well plates, and transfection was carried out when the cell density reached approximately 80%. Each well was transfected with 2 ug mRNA, and the transfection reagent was Lipofectamine MessengerMAX Transfection Reagent (Invitrogen), and the transfection steps were carried out according to the instructions. Twenty-four hours after transfection, the signal intensity of luciferase was measured on microplate reader. Measurement of luciferase fluorescence: the transfected cell culture solution was transferred to a 1.5 mL centrifuge tube and centrifuged, 10 ul of cell supernatant was taken and added to a 96-well plate, and 50 ul of 10 ng/ml substrate was added, and then the fluorescence intensity was measured on Synergy HI (BioTek) instrument. The expression of each mRNA was required to be measured 6 times and the expression results were relative values to the results of ^m7GpppApG cap.

INFB = assay: Immunogenicity: expression of intracellular inflammatory factor INFB by qPCR in Hela cells; assay type: cell-based; conditions: 2 ug mRNA/well, 24 hours after transfection, relative to ^m7GpppApG cap, mean±SD
Method: In this example, Hela cells (ATCC CCL-2) were transfected with luciferase mRNAs (Gaussia luciferase) comprising various initial cap structures (the initial cap nucleotide structures comprised are: ^m7GpppApG, ^m7GpppA2′Ome pG, ^m7G3′OmepppA2′O-ethylpG, ^m7G2′OmepppA2′O-ethylpG, ^m7G3′OmeppA2′O-MOEpG, ^m7G2′OmepppA2′O-MOEpG, ^m7Gppp(N6-methyladenine)2′O-MOEpG, ^m7G2′OmepppC2′O-ethylpC, ^m7G3′OmepppA2′O-MOEpU), and collected after 24 hours. The expression of intracellular inflammatory factors was detected, and the relative abundance of the factors is in proportional to the immunogenicity of the mRNA.
(§1) Hela cells were seeded at a density of 4×10^5/well in 6-well plates, and transfection was carried out when the cell density reached approximately 80%. Each well was transfected with 2 ug mRNA, and the transfection reagent was Lipofectamine MessengerMAX Transfection Reagent (Invitrogen), and the transfection steps were carried out according to the instructions. Twenty-four hours after transfection, the cells were collected and TRIzol was used to extract RNAs which were then reverse transcribed into cDNAs. The expression of intracellular inflammatory factors was detected using real-time quantitative fluorescent PCR with B-actin as the internal reference. The detection of each gene was repeated 3 times, and the result of the expression of each gene is expressed as the relative value to the result of ^m7GpppApG cap.
as §1, with “The expression of intracellular inflammatory factors was detected, and the relative abundant of the factors is in proportional to the immunogenicity of the mRNA. Hela” for “Hela”, “β-actin” for “B-actin”

[1] = Example 3 (IVT at 50° C.), β-actin reference

Substance	Relative Luciferase Unit RLU (after purification) (Hela cells (ATCC CCL-2); Example 2)	Relative Luciferase Unit RLU (no purification) (Hela cells (ATCC CCL-2); Example 2)	Expression of INFB (INFB; Example 2, B-actin reference)	Relative Luciferase Unit RLU (after purification) (Hela cells (ATCC CCL-2); Example 3 (IVT at 50° C.))	Relative Luciferase Unit RLU (no purification) (Hela cells (ATCC CCL-2); Example 3 (IVT at 50° C.))	Expression of INFB (INFB; [1])
^m7G2′OmepppA2′O-MOEpG	5.11 ± 0.17	4.47 ± 0.07	0.24 ± 0.03			
^m7G2′OmepppA2′O-ethylpG	3.34 ± 0.01	2.83 ± 0.11	0.42 ± 0.02			
^m7G2′OmepppC2′O-ethylpC	1.71 ± 0.18	1.33 ± 0.06	0.78 ± 0.01			
^m7G3′OmepppA2′O-MOEpG	4.18 ± 0.16	3.3 ± 0.13	0.41 ± 0.01			
^m7G3′OmepppA2′O-MOEpU	1.76 ± 0.12	1.32 ± 0.06	1.18 ± 0.08			
^m7G3′OmepppA2′O-ethylpG	2.73 ± 0.03	2.63 ± 0.15	0.47 ± 0.01			
^m7GAlpha-L-LNApppA2′O-ethyl pG				2.97 ± 0.09	2.67 ± 0.02	0.11 ± 0.03
^m7GBeta-D-LNApppA2′O-MOEpG				3.45 ± 0.01	3 ± 0.12	0.09 ± 0.02
^m7Gppp(N6-methyladenine)2′O-MOEpG	3.23 ± 0.07	2.98 ± 0.02	0.46 ± 0.02			
^m7GpppA2′Ome pG [reference compound]	3.3 ± 0.13	2.94 ± 0.02	0.61 ± 0.01	1.56 ± 0.11	1.25 ± 0.11	0.63 ± 0.04
^m7GpppApG [reference compound]	1 ± 0.19	1 ± 0.02	1 ± 0.08	1 ± 0.12	1 ± 0.02	1 ± 0.13
